Test results taken from patent US8097607B2, “Low dose rifalazil compositions” (priority 2002, dated 2012).

What was measured:
[1] = cited from earlier work
mycobacterium species = conditions: 1 to 100 mg once or twice weekly; cited from earlier work
[2] = Clinical trial: pharmacokinetics of rifalazil in plasma after single oral doses; conditions: for AUC / CL/F / Cmax / half-life: male, human, in vivo, po; for half-life / K10 / K12 / K21 / V1/F / Vdβ/F: males

CO[C@H]1/C=C/O[C@@]2(C)Oc3c(C)c(O)c4c(=O)c(c5oc6cc(N7CCN(CC(C)C)CC7)cc(O)c6nc-5c4c3C2=O)NC(=O)/C(C)=C\C=C\[C@H](C)[C@H](O)[C@@H](C)[C@@H](O)[C@@H](C)[C@H](OC(C)=O)[C@@H]1C [rifalazil, Rifalazil]
incidence of adverse reactions (headaches, fevers, flu-like symptoms) ([1]; 1 to 100 mg once or twice weekly): reduced, but did not eliminate | adverse reactions ([1]; clinical trials, daily administration, 10 mg per day to 10 g per day): many adverse reactions occurred | efficacy against mycobacterium species (mycobacterium species): efficacious | AUC ([2]; 2.5 mg): 0.185 µg·h/mL | CL/F ([2]; 2.5 mg): 0.18 L/h/kg | Cmax ([2]; 2.5 mg): 0.0079 µg/mL | half-life ([2]; 2.5 mg, Absorption t½, single 2.5 mg oral dose): 0.67 h | half-life ([2]; 2.5 mg, Distribution t½, single 2.5 mg oral dose): 7.3 h | half-life ([2]; 2.5 mg, Elimination t½, single 2.5 mg oral dose): 139 h | AUC ([2]; 50 mg): 1.35 µg·h/mL | CL/F ([2]; 50 mg): 0.49 L/h/kg | Cmax ([2]; 50 mg): 0.0573 µg/mL | half-life ([2]; 50 mg, Absorption t½, single 50 mg oral dose): 0.5 h | half-life ([2]; 50 mg, Distribution t½, single 50 mg oral dose): 11.6 h | half-life ([2]; 50 mg, Elimination t½, single 50 mg oral dose): 116 h | K10 ([2]; single 2.5 mg oral dose): 0.045 h⁻¹ | K12 ([2]; single 2.5 mg oral dose): 0.044 h⁻¹ | K21 ([2]; single 2.5 mg oral dose): 0.011 h⁻¹ | V1/F ([2]; single 2.5 mg oral dose): 4.08 L/kg | Vdβ/F ([2]; single 2.5 mg oral dose): 36.0 L/kg | K10 ([2]; single 50 mg oral dose): 0.039 h⁻¹ | K12 ([2]; single 50 mg oral dose): 0.018 h⁻¹ | K21 ([2]; single 50 mg oral dose): 0.009 h⁻¹ | V1/F ([2]; single 50 mg oral dose): 12.7 L/kg | Vdβ/F ([2]; single 50 mg oral dose): 82.4 L/kg
